Activity calls are given as the source filed them. For most assays here, no stated cut-off is given here; in the data, actives have a measured Kd and inactives only a lower limit.
Key:
[1] = target: Serine/threonine-protein kinase PAK 4 (Homo sapiens, UniProt O96013)
[2] = target: Casein kinase I isoform delta (Homo sapiens, UniProt P48730)
[3] = target: T1, Acyl-CoA dehydrogenase family member 10 (Homo sapiens, UniProt Q6JQN1)
T1 sequence (Q6JQN1 whole entry): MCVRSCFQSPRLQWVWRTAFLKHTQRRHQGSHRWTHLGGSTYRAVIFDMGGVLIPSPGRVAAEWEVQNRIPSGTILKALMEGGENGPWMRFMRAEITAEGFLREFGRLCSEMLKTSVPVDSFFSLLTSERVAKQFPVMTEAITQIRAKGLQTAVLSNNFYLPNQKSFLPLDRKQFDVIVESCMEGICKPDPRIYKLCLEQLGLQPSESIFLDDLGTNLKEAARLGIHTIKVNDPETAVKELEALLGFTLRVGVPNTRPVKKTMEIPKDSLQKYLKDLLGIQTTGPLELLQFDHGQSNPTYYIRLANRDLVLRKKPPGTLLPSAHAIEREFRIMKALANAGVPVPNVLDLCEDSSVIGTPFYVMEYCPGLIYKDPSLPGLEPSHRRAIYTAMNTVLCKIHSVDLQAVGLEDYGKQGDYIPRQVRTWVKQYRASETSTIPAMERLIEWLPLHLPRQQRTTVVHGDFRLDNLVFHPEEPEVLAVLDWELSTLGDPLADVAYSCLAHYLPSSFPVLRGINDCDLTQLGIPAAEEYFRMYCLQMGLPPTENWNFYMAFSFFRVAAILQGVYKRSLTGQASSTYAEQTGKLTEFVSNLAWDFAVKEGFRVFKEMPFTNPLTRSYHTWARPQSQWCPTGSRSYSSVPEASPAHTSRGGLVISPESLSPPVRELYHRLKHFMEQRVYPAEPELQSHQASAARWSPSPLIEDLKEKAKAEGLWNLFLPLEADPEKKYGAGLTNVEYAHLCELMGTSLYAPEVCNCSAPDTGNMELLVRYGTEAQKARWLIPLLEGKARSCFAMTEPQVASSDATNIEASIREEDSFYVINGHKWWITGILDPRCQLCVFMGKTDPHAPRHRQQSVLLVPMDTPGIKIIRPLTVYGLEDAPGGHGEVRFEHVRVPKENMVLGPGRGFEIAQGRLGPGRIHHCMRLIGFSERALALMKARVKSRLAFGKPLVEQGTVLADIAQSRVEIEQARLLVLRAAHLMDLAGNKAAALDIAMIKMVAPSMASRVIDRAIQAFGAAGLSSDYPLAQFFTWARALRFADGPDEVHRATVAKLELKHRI

[4] = target: T2, Mitogen-activated protein kinase kinase kinase 5 (Homo sapiens, UniProt Q99683)
T2 sequence (Q99683 whole entry): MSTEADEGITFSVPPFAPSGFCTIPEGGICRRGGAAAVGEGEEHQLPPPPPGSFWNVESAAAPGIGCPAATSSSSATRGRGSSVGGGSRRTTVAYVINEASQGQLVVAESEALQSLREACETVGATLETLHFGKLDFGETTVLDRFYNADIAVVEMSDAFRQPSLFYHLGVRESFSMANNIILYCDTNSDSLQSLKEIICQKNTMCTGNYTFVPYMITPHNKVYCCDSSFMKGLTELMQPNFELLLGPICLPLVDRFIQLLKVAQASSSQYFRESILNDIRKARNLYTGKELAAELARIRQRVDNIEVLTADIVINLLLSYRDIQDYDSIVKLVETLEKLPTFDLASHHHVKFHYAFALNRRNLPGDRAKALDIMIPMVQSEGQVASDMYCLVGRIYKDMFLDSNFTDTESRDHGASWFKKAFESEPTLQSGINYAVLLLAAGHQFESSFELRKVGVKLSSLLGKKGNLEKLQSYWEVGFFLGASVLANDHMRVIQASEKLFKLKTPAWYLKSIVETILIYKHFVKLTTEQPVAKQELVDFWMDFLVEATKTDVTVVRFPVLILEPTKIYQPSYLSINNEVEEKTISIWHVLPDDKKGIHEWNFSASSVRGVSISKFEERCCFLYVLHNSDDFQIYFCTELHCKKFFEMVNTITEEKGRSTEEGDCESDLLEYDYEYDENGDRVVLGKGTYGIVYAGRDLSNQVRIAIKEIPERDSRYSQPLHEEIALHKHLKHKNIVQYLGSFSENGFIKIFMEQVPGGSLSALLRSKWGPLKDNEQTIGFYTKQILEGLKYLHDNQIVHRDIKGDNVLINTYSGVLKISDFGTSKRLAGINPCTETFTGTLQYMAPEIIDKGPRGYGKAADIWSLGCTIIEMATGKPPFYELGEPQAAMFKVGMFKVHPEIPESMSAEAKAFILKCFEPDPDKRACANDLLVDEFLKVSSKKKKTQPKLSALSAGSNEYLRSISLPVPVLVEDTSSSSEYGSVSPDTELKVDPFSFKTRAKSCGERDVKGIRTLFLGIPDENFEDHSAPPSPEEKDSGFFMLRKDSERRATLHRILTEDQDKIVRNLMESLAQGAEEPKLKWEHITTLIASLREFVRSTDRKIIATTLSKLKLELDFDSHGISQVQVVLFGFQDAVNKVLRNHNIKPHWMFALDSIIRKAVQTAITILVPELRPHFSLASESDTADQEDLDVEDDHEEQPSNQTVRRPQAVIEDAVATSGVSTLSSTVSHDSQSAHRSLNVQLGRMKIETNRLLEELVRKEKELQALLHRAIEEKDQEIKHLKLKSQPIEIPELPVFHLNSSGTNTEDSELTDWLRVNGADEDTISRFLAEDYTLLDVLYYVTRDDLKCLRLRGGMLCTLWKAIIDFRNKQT

[5] = target: Mitogen-activated protein kinase kinase kinase kinase 1 (Homo sapiens, UniProt Q92918)
Chain of Mitogen-activated protein kinase kinase kinase kinase 1 (Q92918 whole entry): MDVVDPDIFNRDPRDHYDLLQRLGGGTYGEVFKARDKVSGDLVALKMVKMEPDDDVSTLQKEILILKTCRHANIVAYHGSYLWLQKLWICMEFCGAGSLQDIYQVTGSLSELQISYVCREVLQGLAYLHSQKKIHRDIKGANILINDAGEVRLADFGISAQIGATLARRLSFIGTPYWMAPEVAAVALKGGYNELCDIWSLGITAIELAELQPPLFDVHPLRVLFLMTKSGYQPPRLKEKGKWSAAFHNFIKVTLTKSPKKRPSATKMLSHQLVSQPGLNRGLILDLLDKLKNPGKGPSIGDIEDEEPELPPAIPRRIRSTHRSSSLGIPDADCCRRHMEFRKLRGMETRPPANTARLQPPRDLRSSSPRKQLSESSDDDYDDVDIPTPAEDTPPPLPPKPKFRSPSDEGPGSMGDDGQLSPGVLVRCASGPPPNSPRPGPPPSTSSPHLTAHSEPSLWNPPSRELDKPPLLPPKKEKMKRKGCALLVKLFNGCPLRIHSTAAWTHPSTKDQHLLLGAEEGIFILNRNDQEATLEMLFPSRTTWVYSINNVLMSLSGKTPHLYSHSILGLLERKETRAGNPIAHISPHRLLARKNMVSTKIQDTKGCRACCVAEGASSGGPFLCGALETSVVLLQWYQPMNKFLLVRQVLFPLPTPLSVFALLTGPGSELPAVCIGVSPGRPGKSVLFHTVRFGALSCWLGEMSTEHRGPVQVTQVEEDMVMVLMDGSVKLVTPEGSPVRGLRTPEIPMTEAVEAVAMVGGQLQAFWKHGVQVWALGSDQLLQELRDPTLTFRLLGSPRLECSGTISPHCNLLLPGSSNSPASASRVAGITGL

Chain of Serine/threonine-protein kinase PAK 4 (O96013 whole entry, canonical isoform): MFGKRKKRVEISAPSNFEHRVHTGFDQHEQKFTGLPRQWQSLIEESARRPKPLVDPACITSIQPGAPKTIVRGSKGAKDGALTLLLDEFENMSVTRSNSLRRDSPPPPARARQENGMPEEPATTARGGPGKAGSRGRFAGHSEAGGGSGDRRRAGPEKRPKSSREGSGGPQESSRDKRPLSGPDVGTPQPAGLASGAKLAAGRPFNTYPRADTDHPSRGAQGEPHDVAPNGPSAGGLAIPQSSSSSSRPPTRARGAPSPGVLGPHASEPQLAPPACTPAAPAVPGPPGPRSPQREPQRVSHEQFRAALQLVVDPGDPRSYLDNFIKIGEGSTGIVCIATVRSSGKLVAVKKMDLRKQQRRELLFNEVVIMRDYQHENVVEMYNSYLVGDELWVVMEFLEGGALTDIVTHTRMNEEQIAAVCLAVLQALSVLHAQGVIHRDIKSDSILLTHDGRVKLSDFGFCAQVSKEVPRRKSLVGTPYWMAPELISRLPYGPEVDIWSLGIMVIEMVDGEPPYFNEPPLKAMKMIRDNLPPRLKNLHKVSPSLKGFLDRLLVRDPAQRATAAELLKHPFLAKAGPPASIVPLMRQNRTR
Chain of Casein kinase I isoform delta (P48730 whole entry, canonical isoform): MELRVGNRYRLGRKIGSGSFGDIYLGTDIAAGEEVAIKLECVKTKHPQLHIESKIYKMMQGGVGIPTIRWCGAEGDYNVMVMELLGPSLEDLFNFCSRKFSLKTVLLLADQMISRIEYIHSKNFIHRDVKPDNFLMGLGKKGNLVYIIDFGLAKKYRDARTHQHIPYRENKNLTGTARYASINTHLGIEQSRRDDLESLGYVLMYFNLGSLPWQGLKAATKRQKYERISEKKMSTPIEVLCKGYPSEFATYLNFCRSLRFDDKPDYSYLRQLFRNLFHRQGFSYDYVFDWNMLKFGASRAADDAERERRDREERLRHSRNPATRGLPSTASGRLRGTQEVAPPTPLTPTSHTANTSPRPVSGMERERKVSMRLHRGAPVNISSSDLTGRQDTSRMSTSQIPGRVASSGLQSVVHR

Structure (SMILES) | Kd [1] | Kd [2] | Kd [3] | Kd [4] | Kd [5]
COCCN1CCN(Cc2ccc(-c3n[nH]c4c3C(=O)c3c(NC(=O)NN5CCOCC5)cccc3-4)cc2)CC1 [RGB-286638] | > 30 µM (inactive) | 1.22 µM (active) | > 30 µM (inactive) | > 30 µM (inactive) | > 30 µM (inactive)
COc1cccc(Nc2ncnn3ccc(CN4CC[C@@H](N)[C@H](O)C4)c23)c1 [BMS-690514] | > 30 µM (inactive) | > 30 µM (inactive) | > 30 µM (inactive) | > 30 µM (inactive) | > 30 µM (inactive)
C=CC(=O)Nc1cccc(Nc2nc(Nc3ccc(N4CCN(C(C)=O)CC4)cc3OC)ncc2C(F)(F)F)c1 [ROCILETINIB] | > 30 µM (inactive) | > 30 µM (inactive) | > 30 µM (inactive) | > 30 µM (inactive) | > 30 µM (inactive)
O=C(NOC[C@H](O)CO)c1ccc(F)c(F)c1Nc1ccc(I)cc1F [MIRDAMETINIB] | > 30 µM (inactive) | > 30 µM (inactive) | > 30 µM (inactive) | > 30 µM (inactive) | > 30 µM (inactive)
O=C(NC[C@H](O)CO)c1ccncc1Nc1ccc(I)cc1F [PIMASERTIB] | > 30 µM (inactive) | > 30 µM (inactive) | > 30 µM (inactive) | > 30 µM (inactive) | > 30 µM (inactive)
O=C(Nc1ccc(OC(F)(F)F)cc1)c1sccc1NCc1ccnc2ccccc12 [OSI-930] | > 30 µM (inactive) | > 30 µM (inactive) | > 30 µM (inactive) | > 30 µM (inactive) | > 30 µM (inactive)
NC[C@@](O)(c1ccc(Cl)cc1)c1ccc(-c2cn[nH]c2)cc1 [AT-13148] | > 30 µM (inactive) | > 30 µM (inactive) | > 30 µM (inactive) | > 30 µM (inactive) | > 30 µM (inactive)
C=CCN(/C=C1/C(=O)O[C@H](COC)[C@@]2(C)C1=C(O)C(=O)C1=C2[C@H](OC(C)=O)C[C@]2(C)C(=O)CC[C@@H]12)CC=C [SONOLISIB] | > 30 µM (inactive) | > 30 µM (inactive) | > 30 µM (inactive) | > 30 µM (inactive) | > 30 µM (inactive)
N#CCNC(=O)c1ccc(-c2ccnc(Nc3ccc(N4CCOCC4)cc3)n2)cc1 [MOMELOTINIB] | > 30 µM (inactive) | > 30 µM (inactive) | > 30 µM (inactive) | > 30 µM (inactive) | > 30 µM (inactive)
COc1cc2nccc(Oc3ccc(NC(=O)C4(C(=O)Nc5ccc(F)cc5)CC4)cc3)c2cc1OC [CABOZANTINIB] | > 30 µM (inactive) | > 30 µM (inactive) | > 30 µM (inactive) | > 30 µM (inactive) | > 30 µM (inactive)
Cc1c(NC(=O)OC[C@@H]2COCCN2)cn2ncnc(Nc3ccc4c(cnn4Cc4cccc(F)c4)c3)c12 [AC-480] | > 30 µM (inactive) | > 30 µM (inactive) | > 30 µM (inactive) | > 30 µM (inactive) | > 30 µM (inactive)
COc1ccc(-c2ccc3ncc4c(c3c2)n(-c2ccc(N3CCNCC3)c(C(F)(F)F)c2)c(=O)n4C)cn1 [BGT-226 FREE BASE] | > 30 µM (inactive) | > 30 µM (inactive) | > 30 µM (inactive) | > 30 µM (inactive) | > 30 µM (inactive)
Cc1cc(Nc2nc(N[C@@H](C)c3ncc(F)cn3)ncc2Cl)n[nH]1 [AZD-1480] | 1.88 µM (active) | > 30 µM (inactive) | > 30 µM (inactive) | > 30 µM (inactive) | > 30 µM (inactive)
CCc1cc2c(cc1N1CCC(N3CCOCC3)CC1)C(C)(C)c1[nH]c3cc(C#N)ccc3c1C2=O [ALECTINIB] | > 30 µM (inactive) | > 30 µM (inactive) | > 30 µM (inactive) | > 30 µM (inactive) | > 30 µM (inactive)
FC(F)(F)c1ccc(CNc2ccc(Cc3c[nH]c4ncc(Cl)cc34)cn2)cn1 [PEXIDARTINIB] | > 30 µM (inactive) | > 30 µM (inactive) | > 30 µM (inactive) | > 30 µM (inactive) | > 30 µM (inactive)
O=S(=O)(c1cccc2c(O)nccc12)N1CCCNCC1 [HYDROXYFASUDIL] | > 30 µM (inactive) | > 30 µM (inactive) | 3.96 µM (active) | > 30 µM (inactive) | > 30 µM (inactive)

From ChEMBL document CHEMBL3991601, “The target landscape of clinical kinase drugs” (Science, 2017)
